From US11433042B2, “Methods and compositions for treating metabolic disorders” (Joslin Diabetes Center, Inc., priority 2017, dated 2022) come the findings set out here.

“Also recorded” adds a separate entry of the source.

Data set [1] can be described thus: Cold tolerance assay (body core temperature at 4° C.). In kind it is in vivo. Particulars: mice, 1 μg/kg retro-orbitally, cold challenge at 4° C., compared to vehicle and 12,13-epOME. How it is done: (§1) For cold tolerance assay, mice were injected retro-orbitally with 1 μg/kg body weight 12,13-diHOME (purchased from Cayman Chemical Company) in 0.1% w/v BSA in PBS or vehicle, then immediately placed in a cold room maintained at 4° C. and body core temperature was determined by rectal probe measurements. Mice injected retro-orbitally were also used to measure blood pressure and pulse with the tail cuff method (Hatteras Instruments).

Data set [2] can be described thus: CLAMS study in cold conditions (4° C.). In kind it is in vivo. Particulars: mice, 1 μg/kg intravenously, 1 h at cold (4° C.). How it is done: For CLAMS studies, mice were injected intravenously with 1 μg/kg body weight 12,13-diHOME in 0.1% BSA PBS or vehicle and then monitored using the CLAMS system in cold conditions (4° C.) for 1 hour. Respiratory exchange ratio (R.E.R.) was calculated as the ratio of total carbon dioxide produced to total oxygen consumed.

The nature of data set [3]: Blood pressure and pulse by the tail cuff method. The following applies: mice, acute pretreatment. In kind it is in vivo. The method, then: as §1
A further data set concerns WT-1 brown adipocytes. The experiment in a line: 14C-labeled palmitic acid uptake and oxidation. In kind it is cell-based. The following applies: mature brown adipocytes. The method, then:
FA uptake and oxidation were determined by measuring both ^14C-labeled palmitic acid uptake and conversion of ^14C-labeled palmitic acid into CO2. WT-1 brown preadipocytes were differentiated according to a standard adipogenic differentiation protocol for 9 days before cells were serum starved for 1 hour. Cells were treated with 1 μM 12,13-diHOME or methyl acetate vehicle in 0.1% w/v BSA in PBS for 15 minutes before the culture medium was removed, and cells were incubated with DMEM/H containing 4% FA-free BSA w/v in PBS, 0.5 mM palmitic acid, and 0.2 μCi/mL [1-^14C]-palmitic acid (PerkinElmer Life and Analytical Science, Waltham, Mass.) for 1 h. The incubation medium was transferred to a vial containing 1M acetic acid, capped quickly, and allowed to incubate for 1 h for CO2 gas to be released. The CO2 released was absorbed by hyamine hydroxide, and activity was counted. FA oxidation was calculated from CO2 generated. To measure fatty acid uptake, cells were rinsed twice with PBS and lysed after incubation with [1-^14C]-palmitic acid. Lipids were extracted using a chloroform-methanol mixture (2:1), and ^14C-counts were determined in the organic phase. Protein concentrations were determined by using the Pierce BCA kit (Life Technologies) according to instructions, and FA uptake (^14C lipids in the cells) and oxidation (^14CO2 generated) were normalized to protein content. […]

The test system of the next data set is BAT. The experiment in a line: In vivo bioluminescent fatty acid uptake (FFA-SS-Luc) in UCP1cre+/− Rosa(stop)Luc+/− mice. The following applies: 1 ug/kg, compared to vehicle. The method, then:
For in vivo bioluminescent fatty acid uptake experiments, UCP1cre^+/- mice (Stock no. 024670) were bred with Rosa(stop)Luc^+/+ (Stock no. 005125), both obtained from The Jackson Laboratory. Male offspring carrying the UCP1-cre allele were injected retro-orbitally with 1 ug/kg body weight 12,13-diHOME in 0.1% BSA PBS or vehicle, and all mice were co-injected with 2 μm FFA-SS-Luc ([…] Medical). Mice were anesthetized with isofluorane and imaged using the IVIS Spectrum CT using sequential 30 s exposures for 1 hour. Data was analyzed using Living Image Software and movies were assembled from individual images using ImageJ.

In the case of `CCCCCC(O)C(O)C/C=C\CCCCCCCC(=O)O` (stereo not shown) [12,13-diHOME, 12,13-dihydroxy-9Z-octadecenoic acid], the “body temperature during cold challenge” value in data set [1] is given as “protected mice from the decrease in body temperature; also recorded: protected mice from cold challenge”. Further, in data set [2], the carbon dioxide production result is given as “significant increases”, the oxygen consumption entry is on record as “significant increases” and the respiratory exchange ratio entry is recorded as “decrease”. Besides, in data set [3], the blood pressure entry is “no effect”, the diastolic pressure result was “very transient increase” and the pulse result is listed as “no effect”. Further, the “radiolabeled FA uptake” value in the data set on WT-1 brown adipocytes (1 μM for 15 minutes, 14C palmitic acid) is recorded as “markedly increased”. Moreover, in the data set with WT-1 brown adipocytes (1 μM, 14C palmitic acid to CO2), the FA oxidation result is “trend to increase”. Besides, the “luminescent signal in BAT (brown adipocyte FA uptake)” value with BAT was “significantly increased”.
